Laboratory results: US7838463B2, “Safeners based on acrylic-aliphatic carboxylic acid derivatives” (Bayer CropScience AG, priority 2003, dated 2010)

Legend:
Assay type in all cases: in vivo
[1] = system: Zea mays (corn), cv. 'Lorenzo'; experiment: Pre-emergence application of herbicide H1 (isoxaflutole) after seed dressing with safener; settings: for % damage in ZEAMA: four weeks
Method: (§1) The number of crop plant seeds required for each application rate of safener was calculated. Sufficient seeds were weighed-out into glass bottles having a screw-on lid. The volume of the glass bottles was approximately twice that of the seeds weighed out.
(§2) The safeners were formulated as 20 percent strength water-dispersible powders. These formulations were weighed out to give the required application rates (g of a.i./kg of seed). The samples were added to the seed in the glass containers, and sufficient water to form a suitable seed dressing was then added. The glass bottles were closed and then mounted in an overhead shaker (which turns the bottles at moderate speed for a period of up to one hour) so that the seeds were uniformly covered with the seed dressing. The bottles were opened and the seed was ready for use in pre-emergence or post-emergence experiments, as described below.
(§3) The seeds which had been treated with safeners and untreated seeds as controls were sown in sandy loam soil in round plastic pots of a diameter of 13 cm and covered with a layer of sandy loam of a thickness of about 1 cm. The herbicides in the form of liquid (for example emulsion concentrates) or dry (for example water-dispersible powders) formulations were diluted with deionized water to the required concentrations and applied to the surface of the soil with a spray bar using a water application rate of 300 liters per hectare. In the two experiments shown below (results see tables 2.2.1 and 2.2.2), the herbicide isoxaflutole was used as an aqueous suspension concentrate.
(§4) The pots were placed in a greenhouse under favorable growth conditions. Visual scoring of the herbicidal action was carried out four weeks after the herbicide application. Evaluation was carried out on a percentage basis by comparison with untreated control plants (0%=no noticeable effect compared with the untreated plant, 100%=treated plant dies).

[2] = system: Glycine max (soybean), cv. 'Lambert'; experiment: as above; settings: for % damage in GLXMA: four weeks
Method: as §1, §2, §3, §4

[3] = system: Zea mays (corn), cv. 'Lorenzo'; experiment: Pre-emergence application of herbicide H1 (isoxaflutole) and safener by the tank mix method: crop damage
Method: (§5) Seeds of various crop plants and weed species were sown in sandy loam soil in round plastic pots of a diameter of 13 cm and covered with a layer of sandy loam of a thickness of about 1 cm. Herbicides and safeners in the form of liquid (for example emulsion concentrates) or dry (for example water-dispersible powders) formulations were diluted with deionized water to the required concentrations and applied to the surface of the soil with a spray bar using a water application rate of 300 liters per hectare. In the experiment shown below, the safeners were used as 20 percent strength water-dispersible powders and the herbicide isoxaflutole was used as an aqueous suspension concentrate (see table 1.1.1). The pots were placed in a greenhouse under favorable growth conditions. Visual scoring of the herbicidal action was carried out four weeks after the herbicide application. Evaluation was carried out on a percentage basis by comparison with untreated control plants (0%=no noticeable effect compared with the untreated plant, 100%=treated plant dies).

Setaria viridis [4] = experiment: Pre-emergence application of herbicide H1 (isoxaflutole) and safener by the tank mix method: herbicidal action; settings: four weeks
Method: as §5

Chenopodium album [5] = experiment: as above; settings: four weeks
Method: as §5

Amaranthus retroflexus [6] = experiment: Post-emergence application of herbicide H3 (glufosinate-ammonium) and safener by the tank mix method: herbicidal action; settings: four weeks
Description: (§6) Seeds of various crop plants and weed species were sown in sandy loam soil in round plastic pots of a diameter of 13 cm and covered with a layer of sandy loam of a thickness of about 1 cm. The pots were placed in a greenhouse under favorable growth conditions for a duration of about two to three weeks, allowing the plants to reach a growth stage of 2 to 4 leaves. The herbicides, in the form of liquid (for example emulsion concentrates, aqueous solutions) or dry (for example water-dispersible powders) formulations, were diluted with deionized water to the required concentrations and applied to the green parts of the plants and the uncovered part of the surface of the soil with a spray bar using a water application rate of 300 liters per hectare. In the experiment shown below, the safeners were used as 20 percent strength water-dispersible powders and the herbicide glufosinate-ammonium as a commercial 20 percent strength aqueous surfactant-containing solution (results see table 1.2.2).
as §4, with “herbicidal” for “herbicide”

Chenopodium album [7] = experiment: as above; settings: four weeks
Description: as §6
as §4, with “herbicidal” for “herbicide”

[8] = system: Zea mays (corn), cv. 'Lorenzo'; experiment: Post-emergence application of herbicide H3 (glufosinate-ammonium) and safener by the tank mix method: crop damage
Description: as §6
as §4, with “herbicidal” for “herbicide”

Amaranthus retroflexus [9] = experiment: Post-emergence application of herbicide H2 (foramsulfuron) and safener by the tank mix method: herbicidal action; settings: safener 250 g a.i./ha + herbicide H2 (foramsulfuron) 40 g a.i./ha, post-emergence tank mix; four weeks
Description: (§7) Seeds of various crop plants and weed species were sown in sandy loam soil in round plastic pots of a diameter of 13 cm and covered with a layer of sandy loam of a thickness of about 1 cm. The pots were placed in a greenhouse under favorable growth conditions for a period of about two to three weeks, allowing the plants to reach a growth stage of 2 to 4 leaves. The herbicides in the form of liquid (for example emulsion concentrates) or dry (for example water-dispersible powders) formulations were mixed with a standard additive (based on rapeseed oil methyl ester), diluted with deionized water to the required concentrations and applied to the green parts of the plants and the uncovered part of the soil surface with a spray bar using a water application rate of 300 liters per hectare. In the experiment shown below, safener and the herbicide foramsulfuron were in each case used as 20 percent strength water-dispersible powder (results see table 1.2.1). The pots were placed in a greenhouse under favorable growth conditions. Visual scoring of the herbicidal action was carried out four weeks after the herbicide application. Evaluation was carried out on a percentage basis by comparison with untreated control plants (0%=no noticeable effect compared with the untreated plant, 100%=treated plant dies).

Setaria viridis [10] = experiment: as above; settings: safener 250 g a.i./ha + herbicide H2 (foramsulfuron) 40 g a.i./ha, post-emergence tank mix; four weeks
Description: as §7

[11] = system: Zea mays (corn), cv. 'Lorenzo'; experiment: Post-emergence application of herbicide H2 (foramsulfuron) and safener by the tank mix method: crop damage; settings: safener 250 g a.i./ha + herbicide H2 (foramsulfuron) 40 g a.i./ha, post-emergence tank mix; for Safener action as % damage reduction in crop plants: ZEAMA, versus herbicide alone; for % damage in ZEAMA: visual scoring four weeks after application
Description: as §7

[12] = system: Zea mays (corn), cv. 'Lorenzo'; experiment: Post-emergence application of herbicide H2 (foramsulfuron) after seed dressing with safener; settings: seed dressing with safener 1 g a.i./kg of seed
Method: The number of crop plant seeds required for each application rate of safener was calculated. Sufficient seeds were weighed-out into glass bottles having a screw-on lid. The volume of the glass bottles was approximately twice that of the seeds weighed out. The safeners were formulated as 20 percent strength water-dispersible powders. These formulations were weighed out to give the required application rates (g of a.i./kg of seed). The samples were added to the seed in the glass containers, and sufficient water to form a suitable seed dressing was then added. The glass bottles were closed and then mounted in an overhead shaker (which turns the bottles at moderate speed for a period of up to one hour) so that the seeds were uniformly covered with the seed dressing. The bottles were opened and the seed was ready for use in pre-emergence or post-emergence experiments, as described below. The seeds treated with safener and untreated seeds were sown in sandy loam soil in round plastic pots of a diameter of 13 cm and covered with a layer of sandy loam of a thickness of about 1 cm. The pots were placed in a greenhouse under favorable growth conditions for a period of about two to three weeks, allowing the plants to reach a growth stage of 2 to 4 leaves. The herbicides in the form of liquid (for example emulsion concentrates) or dry (for example water-dispersible powders) formulations were mixed with a standard additive (based on rapeseed oil methyl ester), diluted with deionized water to the required concentrations and applied to the green parts of the plants and the uncovered part of the soil surface with a spray bar using a water application rate of 300 liters per hectare. In the experiment shown below, the herbicide foramsulfuron was used as 20 percent strength water-dispersible powder (results see table 2.3.1). The pots were placed in a greenhouse under favorable growth conditions. Visual scoring of the herbicidal action was carried out four weeks after the herbicide application. Evaluation was carried out on a percentage basis by comparison with untreated control plants (0%=no noticeable effect compared with the untreated plant, 100%=treated plant dies).

[13] = untreated seed (no safener), herbicide H1 (isoxaflutole) 100 g a.i./ha pre-emergence
[14] = herbicide H1 (isoxaflutole) 100 g a.i./ha alone, no safener, pre-emergence
[15] = safener 250 g a.i./ha + herbicide H3 (glufosinate-ammonium) 250 g a.i./ha, post-emergence tank mix
[16] = seed dressing with safener 1 g a.i./kg of seed, then herbicide H1 (isoxaflutole) 100 g a.i./ha pre-emergence
[17] = safener 250 g a.i./ha + herbicide H1 (isoxaflutole) 100 g a.i./ha, pre-emergence tank mix
[18] = herbicide H3 (glufosinate-ammonium) 250 g a.i./ha alone, no safener, post-emergence

## CS(=O)(=O)c1cc(C(F)(F)F)ccc1C(=O)c1cnoc1C1CC1 [Herbicide H1, isoxaflutole, reference compound]
[1]; [13]
  % damage in ZEAMA: 25%
[2]; [13]
  % damage in GLXMA: 83%
[3]; herbicide H1 (isoxaflutole) 100 g a.i./ha alone, no safener, pre-emergence, four weeks
  % damage in ZEAMA: 27%
Setaria viridis [4]; [14]
  Herbicidal action as % damage in SETVI: 95%
Chenopodium album [5]; [14]
  Herbicidal action as % damage in CHEAL: 92%

## O=C(O)C=Cc1ccc(Cl)cc1Cl [Comp. 155, 2,4-dichlorocinnamic acid]
Amaranthus retroflexus [6]; [15]
  Herbicidal action as % damage in AMARE: 94%
Chenopodium album [7]; [15]
  Herbicidal action as % damage in CHEAL: 92%
[8]; ZEAMA, safener 250 g a.i./ha + herbicide H3 (glufosinate-ammonium) 250 g a.i./ha, post-emergence tank mix, versus herbicide alone
  Safener action as % damage reduction in crop plants: 66%
[8]; safener 250 g a.i./ha + herbicide H3 (glufosinate-ammonium) 250 g a.i./ha, post-emergence tank mix, visual scoring four weeks after application
  % damage in ZEAMA: 21%
Amaranthus retroflexus [9]
  Herbicidal action as % damage in AMARE: 98%
Setaria viridis [10]
  Herbicidal action as % damage in SETVI: 95%
[11]
  Safener action as % damage reduction in crop plants: 83%
  % damage in ZEAMA: 6%
[1]; ZEAMA, seed dressing with safener 1 g a.i./kg of seed, herbicide H1 (isoxaflutole) 100 g a.i./ha pre-emergence, versus untreated seed
  Safener action as % damage reduction in crop plants: 72%
[1]; [16]
  % damage in ZEAMA: 7%
[2]; GLXMA, seed dressing with safener 1 g a.i./kg of seed, herbicide H1 (isoxaflutole) 100 g a.i./ha pre-emergence, versus untreated seed
  Safener action as % damage reduction in crop plants: 64%
[2]; [16]
  % damage in GLXMA: 30%
[3]; ZEAMA, safener 250 g a.i./ha + herbicide H1 (isoxaflutole) 100 g a.i./ha, pre-emergence tank mix, versus herbicide alone
  Safener action as % damage reduction in crop plants: 74%
[3]; safener 250 g a.i./ha + herbicide H1 (isoxaflutole) 100 g a.i./ha, pre-emergence tank mix, visual scoring four weeks after application, 0%=no effect, 100%=plant dies
  % damage in ZEAMA: 7%
[12]; ZEAMA, herbicide H2 (foramsulfuron) 40 g a.i./ha post-emergence, versus untreated seed
  Safener action as % damage reduction in crop plants: 88%
[12]; then herbicide H2 (foramsulfuron) 40 g a.i./ha post-emergence, four weeks
  % damage in ZEAMA: 4%
Setaria viridis [4]; [17]
  Herbicidal action as % damage in SETVI: 95%
Chenopodium album [5]; [17]
  Herbicidal action as % damage in CHEAL: 95%

## CP(=O)(O)CCC(N)C(=O)O (stereo not drawn) [Herbicide H3, glufosinate-ammonium, reference compound]
Amaranthus retroflexus [6]; [18]
  Herbicidal action as % damage in AMARE: 90%
Chenopodium album [7]; [18]
  Herbicidal action as % damage in CHEAL: 92%
[8]; herbicide H3 (glufosinate-ammonium) 250 g a.i./ha alone, no safener, post-emergence, four weeks
  % damage in ZEAMA: 62%

## COc1ccc(C=CC(=O)O)cc1 [Comp. 154, 4-methoxycinnamic acid]
Amaranthus retroflexus [9]
  Herbicidal action as % damage in AMARE: 96%
Setaria viridis [10]
  Herbicidal action as % damage in SETVI: 95%
[11]
  Safener action as % damage reduction in crop plants: 67%
  % damage in ZEAMA: 12%
